Assays:
[1] = molecular target: T1, Trypanosoma brucei pteridine reductase 1 (TbPTR1) (Trypanosoma brucei brucei, UniProt O76290); conditions: flavonols 1A–3A, cited from earlier work; for IC50: evaluated as in previous paper
T1 construct: made in house
T1 sequence (O76290 1-268): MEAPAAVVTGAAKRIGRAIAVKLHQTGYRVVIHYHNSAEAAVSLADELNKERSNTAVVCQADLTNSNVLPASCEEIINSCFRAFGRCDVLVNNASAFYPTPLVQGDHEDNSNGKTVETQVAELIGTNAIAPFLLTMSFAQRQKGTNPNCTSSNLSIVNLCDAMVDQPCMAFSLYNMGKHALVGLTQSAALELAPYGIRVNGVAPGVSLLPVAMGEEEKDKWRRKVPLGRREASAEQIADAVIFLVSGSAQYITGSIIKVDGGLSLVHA

[2] = molecular target: T2, Leishmania major pteridine reductase 1 (LmPTR1) (Leishmania major, UniProt Q01782); conditions: flavonols 1A–3A, cited from earlier work; for IC50: evaluated as in previous paper
T2 construct: made in house
T2 sequence (Q01782 1-288): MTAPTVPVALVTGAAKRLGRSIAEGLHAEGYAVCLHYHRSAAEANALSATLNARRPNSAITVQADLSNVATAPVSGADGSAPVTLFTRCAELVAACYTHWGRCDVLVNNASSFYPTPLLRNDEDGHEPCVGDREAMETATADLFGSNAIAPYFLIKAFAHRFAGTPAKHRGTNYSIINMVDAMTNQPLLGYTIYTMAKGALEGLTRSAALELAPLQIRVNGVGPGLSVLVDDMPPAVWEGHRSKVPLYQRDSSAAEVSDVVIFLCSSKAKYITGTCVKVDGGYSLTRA

[3] = test system: L. infantum (MHOM/BR/1972/BH46) intracellular amastigotes; experiment: Activity against L. infantum intramacrophage amastigotes (high-content imaging); type: cell-based, Leishmania infantum; conditions: Leishmania infantum; read-out: IC50 (reference compound for L. infantum)
Protocol: […] THP-1 cells were plated onto 384-well plates in Roswell Park Memorial Institute (RPMI) 1640 medium, Hyclone, GE Healthcare Life Sciences (Issaquah, WA, USA) containing 50 ng/mL phorbol 12-myristate 13-acetate (PMA, Sigma-Aldrich, Saint Louis, MS, USA), and incubated for 48 h. Then, 6 day-old promastigotes were added, at a ratio of 50 parasites per each THP-1 cell seeded earlier. After 24 h of infection, negative controls (0.5% DMSO), positive controls (10 μM amphotericin B) or compounds were added to the plate. Assay plates were incubated for 48 h, and then fixed with 4% paraformaldehyde and stained with Draq 5. The Operetta high-content automated imaging system was used to acquire images and the Harmony Software was optimized to quantify the host cell number, the infection ratio and the number of parasites per infected cell. The ratio between infected cells and total number of cells is then calculated, and defined as the Infection Ratio (IR). The raw data for IR values was normalized to negative—DMSO (mock)-treated infected cells—and positive (non-infected cells) controls to determine the normalized antiparasitic activity.

[4] = test system: T. brucei bloodstream forms; experiment: Activity against T. brucei bloodstream forms (resazurin-based assay); type: cell-based, Trypanosoma brucei; conditions: Trypanosoma brucei; read-out: IC50 (reference compound for T. brucei)
Protocol: The efficacy of compounds against T. brucei bloodstream forms was evaluated using a modified resazurin-based assay previously described in literature.

[5] = molecular target: T1, Trypanosoma brucei pteridine reductase 1 (TbPTR1); experiment: TbPTR1 enzyme reporter assay (cytochrome-c reduction, 550 nm); type: biochemical; conditions: read-out: % Inhibition TbPTR1 (50 μM), 50 μM; compounds 1–3 and control
Protocol: (§1) TbPTR1 and LmPTR1 were purified as reported in literature. The enzyme kinetic profile of each selected protein was characterized by a spectrophotometric assay. The experimental assay consists of enzyme kinetic reaction monitoring at 340 nm for a total time of 180 s. The enzyme kinetic activity was measured at steady-state concentration of 7,8-dihydro-L-biopterin (H2B) and NADPH substrates equal to 50 and 120 µM and varying the enzyme concentration in the 0.001–0.006 µM and 0.005–0.010–0.015–0.020–0.025–0.030 µM range for Lm- and TbPTR1, respectively. The resulting kcat values were equal to 0.68 (s^−1) and 7.2 (s^−1) for Tb- and LmPTR1, respectively. For both TbPTR1 and LmPTR1, the Km value evaluation assay for H2B- and NADPH-substrates was performed in the 0.3-0.6–0.9–1.2–2.4–4.8 µM and 3.0–6.0–12.0–40.0–90.0–190.0 µM concentrations range, respectively.
(§2) Compounds 1A–3A were evaluated as reported in our previous paper. The novel synthesized compounds 1–3 were tested towards TbPTR1 and LmPTR1 using the in vitro TbPTR1/LmPTR1 enzyme reporter assay. The experimental procedure consists of monitoring the non-enzymatic reduction reaction of cytochrome-c at 550 nm, related to the reduction reaction of H2B to tetrahydrobiopterin (H4B) by using NADPH as the cofactor. TbPTR1 and LmPTR1 enzyme activity was assayed in a buffer containing 20 mM sodium citrate (pH 6.0) in a final experimental volume equal to 600 µL. The final reaction mixture contained different substrates added in the following order: TbPTR1/LmPTR1 (0.018 µM/0.002 µM) in 20 mM Tris-HCl, glycerol 10% (v/v), pH 7.5; H2B at a final concentration equal to 0.3 µM; cytochrome-c (80 µM); Milli-Q water to a final volume of 600 µL and NADPH to a final concentration of 500 µM. Before the addition of NADPH, the reaction mixture was incubated for 10 min at 30 °C and 80 RPM. To allow the starting of the reaction, NADPH was added and the enzyme reaction was detected for a total time of 10 min at 30 °C, 550 nm. The inhibition profile characterization of compounds 1–3 was performed with a DU-640 spectrophotometer (Beckman Coulter, Brea, CA, USA). Each compound was assayed in duplicate against Tb/LmPTR1 target enzymes in the 0–10–25–50–80–150 µM concentrations range. At the different concentration values, the compounds were added to the reaction mixture (enzyme, H2B, cytochrome-c in 20 mM sodium citrate buffer and Milli-Q water) and incubated for 10 min at 30 °C, 80 RPM. The reaction was initiated by the addition of NADPH (500 µM) and monitored for 10 min at 30 °C, 550 nm. The absorbance values were processed by software analysis and transformed into the corresponding slopes. The percentages of inhibition and the IC50 values were determined.

[6] = molecular target: T2, Leishmania major pteridine reductase 1 (LmPTR1); experiment: LmPTR1 enzyme reporter assay (cytochrome-c reduction, 550 nm); type: biochemical; conditions: read-out: % Inhibition LmPTR1 (50 μM)
Protocol: as §1, §2

[7] = molecular target: the molecule itself; experiment: crystal structure; LmPTR1-NADP+ ternary complexes with compound 1 and with compound 3; hanging drop, 293 K, 12% PEG 4600, 100 mM sodium acetate pH 5.5, 120-160 mM calcium acetate; compounds soaked into pre-formed crystals; one homotetramer in the asymmetric unit
[8] = molecular target: the molecule itself; experiment: crystal structure; TbPTR1-NADP+-compound 1 ternary complex; sitting drop, room temperature, 1.5-2.5 M sodium acetate, 0.1 M sodium citrate pH 5.0; compound soaked into pre-formed crystals; one homotetramer in the asymmetric unit

O=c1c(O)c(-c2cccc(O)c2)oc2ccc(O)cc12 [Compound 1A]
% Inhibition TbPTR1 (50 μM) [1]: 96.1%
IC50 [1]: 4.3 µM
% Inhibition LmPTR1 (50 μM) [2]: 86.2%
IC50 [2]: 12.5 µM

O=c1c(O)c(-c2ccc(O)cc2)oc2ccc(O)cc12 [Compound 2A]
% Inhibition TbPTR1 (50 μM) [1]: 2.6%
% Inhibition LmPTR1 (50 μM) [2]: 10.8%

O=c1c(O)c(-c2ccc(O)c(O)c2)oc2ccc(O)cc12 [Compound 3A]
% Inhibition TbPTR1 (50 μM) [1]: 53.1%
IC50 [1]: 38 µM
% Inhibition LmPTR1 (50 μM) [2]: 75.4%
IC50 [2]: 35 µM

CCCCCCCCCCCCCCCCOP(=O)([O-])OCC[N+](C)(C)C [miltefosine, reference compound]
IC50 [3]: 2.65 ± 0.4 µM

N=C(N)c1ccc(OCCCCCOc2ccc(C(=N)N)cc2)cc1 [pentamidine, reference compound]
IC50 [4]: 0.00155 ± 0.00024 µM

CCc1nc(N)nc(N)c1-c1ccc(Cl)cc1 [pyrimethamine, reference compound]
inhibition at 50 µM [5]: 100%
inhibition at 50 µM [6]: 100%

B1: Leishmania major pteridine reductase 1 (enzyme)
chain: T2 sequence (Q01782 1-288)
notes: pteridine reductase 1 (PTR1) of Leishmania major; Crystallised with NADPH/NADP+ and soaked with compound 1 or 3 (small molecules); also called LmPTR1; PTR1; source: expressed and purified as reported in literature [14]
stoichiometry N [7]: 4

B2: Trypanosoma brucei pteridine reductase 1 (enzyme)
chain: T1 sequence (O76290 1-268)
modifications: oxo-cysteine at residue 168
notes: pteridine reductase 1 (PTR1) of Trypanosoma brucei; Crystallised with the cofactor NADP+ and soaked with compound 1 (small molecules); also called TbPTR1; PTR1; source: expressed and purified as reported in literature [14]
stoichiometry N [8]: 4

Source: PMC6155272, “Chroman-4-One Derivatives Targeting Pteridine Reductase 1 and Showing Anti-Parasitic Activity” (Molecules : A Journal of Synthetic Chemistry and Natural …, 2017)
